US20160090351A1, “INHIBITORS OF DEUBIQUITINATING PROTEASES” (BRANDEIS UNIVERSITY, priority 2013, published 2016)
Entries after “also recorded” stand apart in the source; their conditions may differ.

Assays:
desumoylation = experiment: stabilization of SUMOylated proteins in lysates from HA-SUMO transfected HEK 293T cells; format: biochemical, human; details: G5 5 μM, C4 300 μM
Description: Untransfected HEK 293T cell lysates were treated with the vehicle alone (DMSO at 1%) or compound and incubated at 37° C. for 2 h. Samples were analyzed by SDS-PAGE and immunoblotting with antibody recognizing K48-linked ubiquitin. D=DMSO; G5=G5 isopeptidase inhibitor 1. A-D show titrations of different compounds (see FIG. 29B for structures). E-H Lysates were prepared from HEK 293T cells expressing HA-SUMO and treated with vehicle alone (DMSO, 1%) or compound. Samples were incubated for the appropriate time and analyzed by SDS-PAGE and immunoblotting with anti-HA antibody. Representative experiments are shown. E. Vehicle control. F. G5, 5 μM; G. C4, 300 μM. H. Quantification of blots as in E-G, N=2 average and range. I-J. Lysates were prepared from HEK 293T cells expressing HA-Ub and treated with either vehicle alone (1% DMSO) or compound at 37° C. for 3 h. Samples were analyzed by SDS-PAGE and immunoblotting with anti-HA antibody. I. A representative experiment. J. Quantitation of experiments in I (N=2 average and range shown). […]
Similar effects were observed when the endogenous K48-linked ubiquitin pool was monitored in lysates prepared from wild-type HEK 293T cells (FIG. 37A-D). Unfortunately, K63-linked ubiquitin could not be detected in these lysates. The ability of C4 to stabilize SUMOylated proteins in lysates from HA-SUMO transfected HEK 293T cells was also assessed.

[1] = system: USP9x, USP19, USP7/8, USP28/15; experiment: HA-Ub-VS activity profiling in cell lysates, USPs; format: biochemical, human
MCF7 cells = experiment: viability and cell cycle of MCF7 cells (Alamar Blue, FACS)
Description: MCF7 cells were dosed every 2 hours with the indicated concentration of C15. After 6 hours, cells were lysed by freeze thaw and then sonicated in 0.5% SDS. […] MCF7 cells were treated under the stated conditions then analyzed for cell cycle. […] G. Cells treated with C17 (25 μM), dosed every 24 hours. H. Cells treated with C17 (50 μM), dosed every 24 hours. […] These cells were left for 72 h (single dose) after which time the total number of viable cells was analyzed using Alamar Blue®. All data are n≧4 showing mean+/−s.e.m. K. MCF7 cells were plated with C17 for 24 hours after which time the total number of viable cells was measured by Alamar Blue®.
All cells were grown at 37° C. in a 5% CO2 humidified atmosphere in DMEM supplemented with 10% heat inactivated FBS, 1× glutamax, and 1× penicillin/streptomycin. […] Proliferation assays were conducted by plating cells at 5% confluence in 96 well plates together with compound or 0.1% DMSO. Cells were allowed to grow for 72 hours (a 24 h dosing regimen was used for carbonate compounds) and then Alamar Blue® was added and number of cells was measured by fluorescence on a microplate reader.

SMAD4 = SMAD4 monoubiquitination in K562 cells by western blot; format: cell-based, human
Description: FIG. 34 depicts data showing that diphenylcarbonates cause the accumulation of HMW-Ub and reduce the levels of Bcr-Abl in K562 cells. A. K562 cells were treated with diphenyl carbonates (50 μM) for 2 h and then assayed for the accumulation of K48-linked Ub. B. As in A, but Bcr-Abl was measured by immunoblotting with anti-Abl antibodies. C. K562 cells were treated with C17 (50 μM) in the presence and absence of bortezomib (6 μM) for 4 hours and Bcr-Abl was measured by immunblotting with anti-Abl antibodies. D. Quantitation of blot in C. Significance: DMSO relative to C17 and bortezomib p=0.002; DMSO relative to C17, p=0.03. E. K562 cells were treated with C15 for 4 hours then analyzed for SMAD4 monoubiquitination by western blot. F. Quantitation of blots in A. (N=3). See also FIG. 40.
(§1) Transfected cells were harvested 1.5 days post transfection. […] Typically clarified lysate was analyzed.

Cos-1 cells = experiment: accumulation of K48- and K63-linked HMW-Ub in Cos-1 cells; format: cell-based, monkey
Description: A. Cos-1 cells were treated with C15 dosing every 2 h for 4 hours. Cells were lysed in standard lysis buffer (without detergent) and the sample was clarified prior to analysis. The accumulation of K48-linked ubiquitin was assayed by SDS-PAGE and by western blot. An intervening lane has been removed for clarity. B Lysates and pellet in A were sonicated in SDS at 4° C., centrifuged then analyzed by SDS-PAGE and by western blot. An intervening lane has been removed for clarity. C. Quantitation of blots in A. D. Quantitation of blots in B.
FIG. 39 depicts data showing the effects of diphenyl carbonates in whole cells. A. Cos-1 cells expressing GFP-Ub(G76V) were treated with the stated diphenyl carbonate (100 μM), bortezomib (B, 20 μM) or DMSO (D) for 8 h. GFP levels were quantified by flow cytometry. B. Cells from A were assessed for viability using propidium iodide dye exclusion assay. C. […] After this time GFP levels were quantified by flow cytometry. D. Cells from C were assessed for viability using propidium iodide dye exclusion. […] G. Cos-1 cells were treated with C15 for 2 hours then analyzed for K48-linked ubiquitin by western blot. […] I. Quantitation of blots in […] (N=3).
as §1

Compound: O=C1/C(=C/c2ccc([N+](=O)[O-])cc2)CS(=O)(=O)C/C1=C\c1ccc([N+](=O)[O-])cc1 [Compound G5, reference compound]
- inhibition of desumoylation (desumoylation): Neither G5 nor C4 inhibited desumoylation

Compound: NCc1ccc(OC(=O)Oc2ccc3ccccc3c2)cc1 [Compound C17]
- HA-Ub-VS labeling without preincubation ([1]; C17 25 μM immediately followed by HA-Ub-VS 1.5 μM): not sufficient to inhibit the labeling of any of the DUBs
- HA-Ub-VS labeling after preincubation and dilution ([1]; C17 250 μM preincubated, diluted 10-fold): labeling was reduced
- viability after single dose, 24 h (MCF7 cells; Alamar Blue): small, but significant, decrease in viability
- G1 phase cells (MCF7 cells; FACS, dosed every 24 hours): significant increase in G1 phase cells

Compound: NCc1ccc(OC(=O)Oc2ccc(Br)cc2)cc1 [Compound C15, 4-(aminomethyl)phenyl(4-bromophenyl)carbonate]
- SMAD4 monoubiquitination (SMAD4): increased SMAD4 monoubiquitination
- increase in total K48-linked and K63-linked HMW-Ub (Cos-1 cells): 3-5 fold
- K48-linked HMW ubiquitin, soluble versus whole cell fraction (Cos-1 cells; dosing every 2 h for 4 hours): causes the accumulation of soluble HMW-Ub in Cos-1 cells; also recorded: only detectable in the soluble fraction
